Test results: PMC8876511, “Two out of Three Musketeers Fight against Cancer: Synthesis, Physicochemical, and Biological Properties of Phosphino Cu^I, Ru^II, Ir^III Complexes” (Pharmaceuticals, 2022)

Columns and labels:
Solubility (qualitative) = assay type: physicochemical
Du-145 cells = assay: MTT cytotoxicity assay, Du-145; assay type: cell-based, human
Method: (§1) Moreover, to investigate the activity of synthesized complexes as potential anticancer agents, their cytotoxicity toward a series of human cancer cell lines and a non-cancer cell line (HaCaT) was evaluated using the MTT assay. […] In addition, we also determined the cytotoxic activity of free ligands toward selected cancer cells. […] However, this effect depends on the cell line. […] The best values of cytotoxic activity of compounds have been obtained after 72 h of cell incubation. Additionally, synthesized complexes had high sensitivity to A549 cells, so this cell line was selected as the research subject for antitumor activity.
(§2) MCF7 cell line (human breast adenocarcinoma, morphology: epithelial-like, ATCC: HTB-22) and A549 cell line (human lung adenocarcinoma, morphology: epithelial, ATCC: CCL-185); HaCaT (human keratinocyte) were cultured in Dulbecco’s Modified Eagle’s Medium (DMEM, Corning, Poland) with phenol red, supplemented with 10% fetal bovine serum (FBS) and with 1% streptomycin/penicillin. Du-145 cell line (human prostate carcinoma); derived from metastatic site: brain was cultured in minimum essential medium (MEM, Corning) with only 10% fetal bovine serum (FBS). Cultures were incubated at 37 °C under a humidified atmosphere containing 5% CO2. Cells were passaged using a solution containing 0.05% trypsin and 0.5 mM EDTA. All media and other ingredients were purchased from ALAB, Poland.
(§3) Since most of the studied compounds are insoluble in aqueous media (Dulbecco’s Modified Eagle’s Medium or minimum essential medium (MEM, Corning), therefore, they needed to be pre-dissolved in DMSO for biological tests. DMSO concentration was kept below 1% in each tested concentration of each compound. […] In brief, 5×10^3 per well (0.2 mL) in the two first approaches, while 1×10^4 cells in the case of longer incubation time were seeded in 96-well flat-bottom microtiter plate, were incubated with the tested complexes at various ranges of concentrations. […] Various compound concentrations (dilutions in proper medium supplemented with 1% FBS) were tested in five replicates and repeated at least three times. Determined values of IC50 (concentration of a drug required to inhibit the growth of 50% of the cells) are given as mean + S.D. (Standard Deviation). IC50 values were determined, from the plots of cell viability in the presence of various concentrations of each compound by matching dose–response curves and using the Origin 9.0 software. Furthermore, post-treatment survival assessment of the treated cells was analyzed under an inverted fluorescence microscope (Olympus IC51, Japan) with an excitation filter 470/20 nm. For this, cells were stained with two versatile fluorescence dyes: fluorescein diacetate (FDA, 5 mg/mL) and propidium iodide (PI, 5 mg/mL) in standard conditions in the dark for 20 min. Before visualization, dyes were removed and cells were washed with PBS twice.

MCF-7 cells = assay: MTT cytotoxicity assay, MCF-7; assay type: cell-based, human
Method: as §1, §2, §3

PANC-1 cells [1] = assay: MTT cytotoxicity assay, PANC-1; assay type: cell-based, human
Method: as §1
(§4) Since most of the studied compounds are insoluble in aqueous media (Dulbecco’s Modified Eagle’s Medium or minimum essential medium (MEM, Corning), therefore, they needed to be pre-dissolved in DMSO for biological tests. DMSO concentration was kept below 1% in each tested concentration of each compound. Cytotoxicity was assessed by MTT assay performed according to the protocols described previously in the following experimental approaches: 6 h + 24 h, 24 h + 24 h, and 72 h + 24 h. In brief, 5×10^3 per well (0.2 mL) in the two first approaches, while 1×10^4 cells in the case of longer incubation time were seeded in 96-well flat-bottom microtiter plate, were incubated with the tested complexes at various ranges of concentrations. After an appropriate incubation time of 6, 24, or 72 h, the cells were washed thee time with PBS and fresh medium was applied for a further 24 h in each approach. Various compound concentrations (dilutions in proper medium supplemented with 1% FBS) were tested in five replicates and repeated at least three times. Determined values of IC50 (concentration of a drug required to inhibit the growth of 50% of the cells) are given as mean + S.D. (Standard Deviation). IC50 values were determined, from the plots of cell viability in the presence of various concentrations of each compound by matching dose–response curves and using the Origin 9.0 software. Furthermore, post-treatment survival assessment of the treated cells was analyzed under an inverted fluorescence microscope (Olympus IC51, Japan) with an excitation filter 470/20 nm. For this, cells were stained with two versatile fluorescence dyes: fluorescein diacetate (FDA, 5 mg/mL) and propidium iodide (PI, 5 mg/mL) in standard conditions in the dark for 20 min. Before visualization, dyes were removed and cells were washed with PBS twice.

[2] = Partition coefficient, shake-flask method (n-octanol/PBS); assay type: physicochemical
Method: The partition coefficient was determined by the shake-flask method. A small amount of compound was dissolved in 5 mL PBS-saturated n-octanol. The sample was sonicated until all the compound was dissolved. Next, 5 mL of PBS saturated with n-octanol was added and the experiment proceeded as before. The resulting mixture was vortexed for 30 min in horizontal position. The sample was centrifuged for 2 min at 3700 rpm to obtain a phase separation. Next, 2 mL of each phase was taken. The next steps were a 5 min sonication and measurement of absorption spectra of the obtained solutions. The calibration curve was prepared in order to determine the concentration of the tested compounds in individual solutions. It was made using the absorption intensity of the compounds in series dilution solutions in PBS saturated with octanol or octanol saturated with PBS in the concentration range c = 1–100 nM.

A549 cells [3] = assay: MTT cytotoxicity assay, A549; assay type: cell-based, human
Method: as §1, §2, §4

HaCaT cells [4] = assay: MTT cytotoxicity assay, HaCaT (non-cancer); assay type: cell-based, human
Method: as §1, §2, §4

HaCaT cells [5] = assay: MTT cytotoxicity assay, HaCaT (non-cancer); assay type: cell-based, human; conditions: 48 h
PANC-1 cells [6] = assay: MTT cytotoxicity assay, PANC-1; assay type: cell-based, human; remark: listed apart in the source
A549 cells [7] = assay: MTT cytotoxicity assay, A549; assay type: cell-based, human; remark: listed apart in the source
[8] = Stability towards atmospheric oxygen (UV-Vis); assay type: physicochemical
Method: Oxidation of copper(I) to copper(II) was observed within 12 h using UV-Vis spectroscopy (Figure 1) that was additionally conformed by color of the copper(I) inorganic compound solution changing from transparent to green. Additionally, oxidation of phosphines ligands (1, 2) was observed. It is worth mentioning that copper(I) ions can easily undergo oxidation processes. The instability of copper(I) complexes prevented us from evaluating their biological activity.

Row | Compound | solubility in mixture of H2O:DMSO (100:1) (Solubility (qualitative)) | IC50 (Du-145 cells; 24 h) [µM] | IC50 (Du-145 cells; 48 h) [µM] | IC50 (Du-145 cells; 72 h) [µM] | IC50 (MCF-7 cells; 24 h) [µM] | IC50 (MCF-7 cells; 48 h) [µM] | IC50 (MCF-7 cells; 72 h) [µM] | IC50 (PANC-1 cells [1]; 24 h) [µM] | IC50 (PANC-1 cells [1]; 72 h) [µM] | IC50 (A549 cells [3]; 24 h) [µM] | IC50 (A549 cells [3]; 72 h) [µM] | IC50 (HaCaT cells [4]; 24 h) [µM] | IC50 (HaCaT cells [4]; 72 h) [µM] | IC50 (HaCaT cells [5]) [µM] | IC50 (PANC-1 cells [6]; 48 h) [µM] | IC50 (A549 cells [7]; 48 h) [µM] | IC50 (Du-145 cells; Homo sapiens, DU-145, 72 h) [µM] | IC50 (MCF-7 cells; Homo sapiens, MCF7, 48 h) [µM] | IC50 (MCF-7 cells; Homo sapiens, MCF7, 72 h) [µM] | IC50 (PANC-1 cells [1]; Homo sapiens, PANC-1, 72 h) [µM] | also measured
1 | CC#N.CC#N.CCN(CC)CP(c1ccccc1)c1ccccc1.CCN(CC)CP(c1ccccc1)c1ccccc1.F[B-](F)(F)F.[Cu+] [1c, [Cu(NCCH3)2(Ph2PCH2N(CH2CH3)2)2]^+BF4^−] | well soluble | – | – | – | – | – | – | – | – | – | – | – | – | – | – | – | – | – | – | – | –
2 | CCCCN(CCCC)C[P+](c1ccccc1)(c1ccccc1)[Ir-3]([Cl])([Cl])[C]1(C)C(C)=C(C)C(C)=C1C [2a, Ir(η^5-Cp*)Cl2Ph2PCH2N(CH2CH2CH2CH3)2] | – | 69 ± 6 | 69 ± 8 | 13 ± 2 | 125 ± 15 | 189 ± 20 | 56 ± 6 | 106 ± 5 | 85 ± 16 | 79 ± 6 | 16 ± 3 | 559 ± 25 | 302 ± 22 | 420 ± 12 | 198 ± 20 | 61 ± 3 | – | – | – | – | Experimental LogP (logPo/w) [2]: 4.0
3 | CC#N.CC#N.CCCCN(CCCC)CP(c1ccccc1)c1ccccc1.CCCCN(CCCC)CP(c1ccccc1)c1ccccc1.F[B-](F)(F)F.[Cu+] [2c, [Cu(NCCH3)2(Ph2PCH2N(CH2CH2CH2CH3)2)2]^+BF4^−] | well soluble | – | – | – | – | – | – | – | – | – | – | – | – | – | – | – | – | – | – | – | –
4 | N.N.[Cl][Pt][Cl] [Cisplatin, reference compound] | – | 85 ± 7 | 81 ± 8 | 50 ± 2 | 176 ± 5 | 151 ± 6 | 64 ± 4 | 166 ± 20 | 79 ± 5 | 70 ± 8 | 11 ± 3 | 400 ± 3 | 102 ± 2 | 362 ± 4 | 131 ± 7 | 66 ± 9 | – | – | – | – | –
5 | CCN(CC)CP(c1ccccc1)c1ccccc1 [compound 1, Ph2PCH2N(CH2CH3)2] | – | – | – | – | – | – | – | – | – | – | – | – | – | – | – | – | 86 ± 6 | 149 ± 13 | 192 ± 20 | 185 ± 12 | IC50 (Du-145 cells; Homo sapiens, DU-145, 24 h): 203 ± 19 µM; IC50 (MCF-7 cells; Homo sapiens, MCF7, 24 h): 458 ± 11 µM; solubility in H2O (Solubility (qualitative)): moderately; IC50 (PANC-1 cells [1]; Homo sapiens, PANC-1, 24 h): 426 ± 7 µM; sensitivity to oxidation in solution [8]: extremely sensitive to oxidation in solution; IC50 (A549 cells [3]; Homo sapiens, A549, 24 h): 620 ± 9 µM; IC50 (A549 cells [3]; Homo sapiens, A549, 72 h): 183 ± 12 µM; IC50 (HaCaT cells [4]; Homo sapiens, HaCaT, 24 h): 646 ± 20 µM; IC50 (HaCaT cells [4]; Homo sapiens, HaCaT, 72 h): 490 ± 12 µM; IC50 (HaCaT cells [5]; Homo sapiens, HaCaT): 458 ± 20 µM; IC50 (A549 cells [7]; Homo sapiens, A549, 48 h): 47 ± 5 µM
6 | CCCCN(CCCC)CP(c1ccccc1)c1ccccc1 [compound 2, Ph2PCH2N(CH2CH2CH2CH3)2] | – | – | – | – | – | – | – | – | – | – | – | – | – | – | – | – | 57 ± 4 | 125 ± 20 | 285 ± 11 | 142 ± 20 | IC50 (Du-145 cells; Homo sapiens, DU-145, 24 h): 185 ± 12 µM; IC50 (Du-145 cells; Homo sapiens, DU-145, 48 h): 54 ± 8 µM; IC50 (MCF-7 cells; Homo sapiens, MCF7, 24 h): 355 ± 13 µM; solubility in H2O (Solubility (qualitative)): moderately; IC50 (PANC-1 cells [1]; Homo sapiens, PANC-1, 24 h): 386 ± 6 µM; sensitivity to oxidation in solution [8]: extremely sensitive to oxidation in solution; IC50 (A549 cells [3]; Homo sapiens, A549, 24 h): 569 ± 11 µM; IC50 (A549 cells [3]; Homo sapiens, A549, 72 h): 158 ± 11 µM; IC50 (HaCaT cells [4]; Homo sapiens, HaCaT, 24 h): 556 ± 13 µM; IC50 (HaCaT cells [4]; Homo sapiens, HaCaT, 72 h): 448 ± 25 µM; IC50 (HaCaT cells [5]; Homo sapiens, HaCaT): 420 ± 11 µM; IC50 (PANC-1 cells [6]; Homo sapiens, PANC-1, 48 h): 158 ± 23 µM; IC50 (A549 cells [7]; Homo sapiens, A549, 48 h): 72 ± 6 µM
7 | CCCCNCCCC [dibutylamine] | – | – | – | – | – | – | – | – | – | – | – | – | – | – | – | – | > 1000 | 226 ± 20 | > 1000 | > 1000 | IC50 (Du-145 cells; Homo sapiens, DU-145, 48 h): 103 ± 7 µM; IC50 (A549 cells [3]; Homo sapiens, A549, 72 h): > 1000 µM; IC50 (HaCaT cells [4]; Homo sapiens, HaCaT, 72 h): > 1000 µM; IC50 (HaCaT cells [5]; Homo sapiens, HaCaT): 445 ± 25 µM; IC50 (PANC-1 cells [6]; Homo sapiens, PANC-1, 48 h): 258 ± 6 µM; IC50 (A549 cells [7]; Homo sapiens, A549, 48 h): 387 ± 25 µM
8 | CCNCC [diethylamine] | – | – | 126 ± 12 | > 1000 | – | 352 ± 25 | > 1000 | – | > 1000 | – | > 1000 | – | > 1000 | 545 ± 33 | 305 ± 13 | 425 ± 38 | – | – | – | – | –
9 | Ru(η^6-p-cymene)Cl2Ph2PCH2N(CH2CH2CH2CH3)2 [2b] | well soluble | 102 ± 6 | 103 ± 7 | 17 ± 3 | 226 ± 20 | 226 ± 20 | 121 ± 20 | 126 ± 6 | 112 ± 18 | 81 ± 4 | 14 ± 2 | 545 ± 13 | 347 ± 25 | 445 ± 25 | 258 ± 6 | 387 ± 25 | – | – | – | – | Experimental LogP (logPo/w) [2]: 3.84
